Results taken from patent US7074925B1, “N-substituted derivatives of 5-oxyiminobarbituric acid” (priority 1998, dated 2006).
≈ marks a conversion by molar mass, not a printed value.

Key:
[1] = Psychostimulating activity, symptom score; type: in vivo, mice; details: tested substances perorally 300 mg/kg, one hour after; maximum 30 points, more than 12 significant
[2] = system: cholesterol synthesis by human's fibroblasts; assay: Inhibition of cholesterol synthesis in human's fibroblasts; type: cell-based; details: 400 ng/ml, [2-14C] acetate incorporation, 4 hours
Experimental: Influence of the substance (400 ng/ml) on cholesterol synthesis by human's fibroblasts was investigated. […] The spots corresponding to cholesterol were removed from a plate to a vial and then were coated with scintillation liquid; after that radioactivity was measured expressed as pulse/min/mg of cell protein. Lovastatin taken in the same concentration as the tested substance was utilized as a reference agent.

[3] = Hypoglycemic activity after glucose load; type: in vivo, mice; details: 100 mg/kg perorally, glucose 1000 mg/kg s.c.; for Glucose in blood: after one hour, glucose control 8.26 ± 0.50
Experimental: Test substance (100 mg/kg) was perorally administrated to fasted mice, and, immediately after that, solution of glucose (1000 mg/kg) was administrated subcutaneously. Glucose content in blood was determined in a hour by the orthotoluidine method. Reducing of glucose level by more than 20% relative to control animals indicated hypoglycemic properties. Glibenclamide (I mg/kg) was utilized as a reference agent.

[4] = Antiulcerous action, water immersion stress with immobilization; type: in vivo, rats; details: 20 mg/kg perorally; for % of animals with ulcers: rats, 4 hours stress, control 100; for % of reducing number of ulcers / % of reducing ulceration index: versus control; for Number of lesions: control 8.3 ± 2.5; for ulceration index: control 10.5 ± 5.7
Experimental: Antiulcerous activity of substances was tested on a model of experimental water immersion stress with immobilization. […] After that, gastric mucous membrane was investigated, number and sizes of ulcers were counted, ulceration index was determined (an average sum of ulcer lengths per one animal in a group).

C.trachomatis D323 = assay: Action on Chlamydia trachomatis in cell culture; type: cell-based; details: 100 mg/l
Experimental: The antimicrobial activity of the claimed compounds was studied relative to C.trachomatis […], which is a standard strain from the collection of the chair of microbiology of St. Petersburg State Pavlov Medical University. […] Cell cultures McCoy and L929 obtained from the Institute of Cytology of RAS were used in this work. Cells were grown in flasks made of neutral glass in the medium RPMI-1640 with the addition of 10% of fetal calf serum. The test was performed in glass (non-toxic) flat-bottom flasks with cover glasses. The cells were introduced into the medium in the final concentration of […]. […] Simultaneously, tested compounds in a final concentration of 100 mg/l were added to the cells. The sample was centrifuged at 2400 G during 60 minutes at room temperature and incubated at 37° C. for 2 hours. […] The samples were doubled using the medium without cycloheximide so as to exclude its effect on the investigated compounds. The samples were incubated in a CO2-incubator for 48 hours. […] The effect of the action of substance was determined by analysis of the monolayer state and number of cells with CPI when compared with the control (cell culture infected with C.trachomatis […]); in doing so, the number of unchanged cells, that were counted in 100 visual fields obtained using the special net of the microscope eyepiece, was taken into consideration. […] Control of cell culture: morphology of cells and state of monolayer correspond to the given type of the cells; control of chlamydia growth in the cell culture: presence of CPI in the monolayer; control of action of standard antimicrobial agent: reduction of number of CPI in the monolayer as compared to the previous control; control of toxicity of the claimed compounds: toxicity is absent; control of action of solvents: toxic action on cells is absent.

[5] = Psychodepressive activity, behavioral score; type: in vivo, mice; details: per oral 300 mg/kg, one hour after dosing; total 60, less than 40 significant
Experimental: Each parameter scores 2 points for an each mouse that had unchanged behavior. The total point sum was 60 (2×10×3 mice). Reducing score to less than 40 one hour after dosing with a substance per oral (300 mg/kg) denoted significant behavioral depression. Haloperidol was utilized as a reference agent.

[6] = Antioxidant action, riboflavine chemiluminescence; type: biochemical; details: solvent water, phosphate buffer pH 9.1
From the text: To assess a general antioxidant activity the method of riboflavine chemiluminescence was used. The test substance was introduced into a system consisted of phosphate buffer (pH 9.1), solution of riboflavine, and solution of bivalent iron sulfate. Chemiluminescence was initiated by 0.1% solution of hydrogen peroxide and registered by means of luminometer. […] Ascorbic acid was used as a reference agent.

[7] = system: Herpes virus of the type I (HSV-I/Leningrad/248/88); assay: Effect on Herpes virus, cytopathogenic action on Vero cells; type: cell-based, Herpes Simplex virus; details: compound 100 μg/ml; for Quantity of the unchanged cells (number of cells in 100 visual fields): Vero cells, 36 hours, cell control 10000; for percentage of protection of cells from virus: compared to the control of cell culture
Experimental: An antiviral activity was determined with respect to Herpes virus of the type I (HSV-I/Leningrad/248/88) by means of commonly accepted method. Viruses were grown on a continuous culture of Vero cells that have been received from the Bank of Cell Cultures of the Institute of Cytology of the Russian Academy of Science.
A virus in a final concentration of […] and the claimed compounds dissolved in DMSO in final concentrations of 100, 10 and 1 mg/l were added to cells that were grown on the RPMI-1640 medium with 10% fetal calf serum and placed into wells of the 96-well plate. 5 separate wells were used for each of tested concentrations of an agent. The plate was incubated during 60 minutes at 38° C. in a CO2-incubator. After the incubation, the virus was removed and then a fresh medium containing claimed compounds in used concentrations was again introduced.
Results were evaluated basing on presence of cytopathogenic action on the cells after 36 hours of incubation at 38° C. in the CO2-incubator.
The next controls were used in the experiment: • 1. Control of cell culture (capability to grow properly) • 2. Control of the virus (evaluation of capability for reproduction) • 3. Control of an antiviral activity of an antiviral drug Acyclovir • 4. Control of compounds (toxicity of compounds) • 5. Control of a solvent (DMSO) for toxicity.
To estimate a cytopathic action of the virus, a quantity of the unchanged cells was calculated in 100 visual fields formed by a special net of an eyepiece of the inverted microscope.

[8] = system: Human's platelet aggregation; assay: Antiaggregational properties, ADP-induced platelet aggregation; type: cell-based; details: 100 μg/ml, ADP […], platelet-enriched human plasma
From the text: Human's platelet aggregation was investigated in plasma of healthy 50±3 years donors that was enriched by thrombocytes, by means of aggregometer FRM-1. […] Magnitude of a maximum non-reversible platelet aggregation in the control samples (solvent) was adopted as 100%, and that in tested samples was counted as the percentage compared to the control.

[9] = Hepatoprotective activity, CCl4 liver damage (AlAT); type: in vivo, rats
Experimental: CCl4 dissolved in 50% olive oil (1 ml/kg) was subcutaneously administrated to rats. Test substances were administrated perorally in a dose of 20 mg/kg 30 minutes before and 7 hours after the CCL4 administration. The activity of alanine-aminotranspherase (AlAT), which is a marker enzyme of liver parenchyma damage, was assessed twenty-four hours later. Reducing of enzyme amount by more than 30% relative to the control group was considered as evidence of hepatoprotective properties of the substance.
Silymarin in a dose of 100 mg/kg was used as a reference agent.

[10] = Determination of maximal tolerable dose; type: in vivo; details: oral administration, mice, observed 72 hours; 300 was the maximally utilized one
Experimental: Tested substance was introduced perorally (in dose of 300 mg/kg) through a gastric tube or intraperitoneally (in dose of 100 mg/kg) to no-breed white mice with mass 18-20 g (each tested group consisted of 3 males and 3 females). Then the mouse state was observed during 72 hours. Absence of symptoms characteristic of toxic effects, or absence of animal death during the given time allows to make a conclusion that the toxicity of the test substance is low. If acute toxicity effects are observed, the dose is reduced to find maximal tolerable dose.

[11] = system: primary culture of human lymphocytes (IFN-α production); assay: Interferon-inducing activity in primary culture of human lymphocytes; type: cell-based
Experimental: Interferon synthesis induction caused by the claimed compounds was conducted on a primary culture of human lymphocytes (it is these cells in a human organism that are the main producers of interferons). To obtain lymphocyte culture, fresh blood (within 12 hours after sampling) from healthy donors (not of group II) was used. To separate lymphocytes, heparinized blood obtained from healthy donor was centrifuged in a density gradient of ficoll-verografin of […] in order to extract a fraction of immunocompetent cells. This fraction was selected and diluted with the nutrient medium RPMI-1640, containing 5% of fetal calf serum, 0.3 mg/ml of L-glutamin, 100 un/ml of penicillin, and […] of streptomycin. The concentration of lymphocytes was considered after dying them with methylene blue and calculation of cell number in Goryaev chamber. Initial solutions of the claimed compounds were diluted with the nutrient medium RPMI-1640 so that the final concentrations of the compounds, which were obtained after introduction of lymphocyte suspension, constituted the raw: 100 μg/ml, 10 μg/ml, 1 μg/ml. The final concentration of lymphocytes in the induction mixture was 3×10^6 cell/ml.
In parallels to the test samples the following controls were done: • 1). Control of spontaneous production of interferons (IFN) by lymphocytes. • 2). […] Control of spontaneous production of interferons in presence of DMSO taken in an amount corresponding to the test samples.
Control and test samples were incubated for 24 hours at the temperature of 37° C. After incubation, the samples were centrifuged at 2,000 G to deposit cell elements, and IFN-containing supernatant was separate out of samples; then the supernatant was analyzed for the quantitative content of IFN. Cell deposition was resuspended in the previous volume of nutrient medium, coloured with vital dye trypan blue, and cell number was counted in the Goryaev chamber (as described above) to determine cytotoxic action of the compounds. The quantitative determination of content of IFN in control and test samples was conducted using the immunoenzyme test system Pro Con IF2 Plus, that is intended for determination of IFN-α, which is produced by TOO “Protein contour”. The solid-phase immunoenzyme method, utilizing horse radish peroxidase as an indicator enzyme, was used to determine the quantity of interferon in the samples. Activity of the bonded peroxidase was measured using an automatic photometer for microplates with a microprocessor at the wavelength of 450 nm.
Based on the obtained results, a calibrating curve was formed, which allows to obtain data expressed in international units (IU) of activity, using the microprocessor of the automatic photometer. The results of the analysis are expressed in IU of activity of IFN per ml in the given induction system, which contains 3×10^4 lymphocyte/ml. Each test and control point was investigated in four parallels.
Controls of immunoenzyme reaction: • 1. Control of DMSO with a nutrient medium. • 2. Control of system components (according to an instruction).
The obtained data were undergone a statistical analysis using t-criterion, and calculation of the confident interval of probability at p=0.05 was carried out. Coincidence of results in the parallel tests was analyzed.

CN1CCc2cccc3c2[C@H]1Cc1ccc(O)c(O)c1-3 [Apomorphine, reference compound]
Number of points (psychostimulation) [1]: 19

CC[C@H](C)C(=O)O[C@H]1C[C@@H](C)C=C2C=C[C@H](C)[C@H](CC[C@@H]3C[C@@H](O)CC(=O)O3)[C@H]21 [Lovastatin, reference compound]
inhibition at 0.4 µg/mL ([2]; Homo sapiens, Fibroblast): 76.4%

O=C1NC(=O)N(c2ccc(F)cc2)C(=O)C1=NO [XXVII]
% change of glucose relative to glucose control [3]: −12%
Glucose in blood [3]: 7.26 ± 0.41 mmol/L
% of animals with ulcers [4]: 67%
% of reducing number of ulcers [4]: −79%
% of reducing ulceration index [4]: −88%
Number of lesions [4]: 1.7 ± 1.3
ulceration index [4]: 1.3 ± 1.0
percentage of cell protection from infection (C.trachomatis D323): (65%)
Number of unchanged cells (C.trachomatis D323; 48 hours, counted in 100 visual fields, cell control 8.000, infected cells 6.000): 7.300
Point number (behavioral depression) [5]: 31
IC50, suppressing chemiluminescence by 50% [6]: 13.00 µg/mL (≈ 51.8 µM)
Quantity of the unchanged cells (number of cells in 100 visual fields) [7]: 6500
percentage of protection of cells from virus [7]: (65%)
% of inhibition of platelet aggregation [8]: 24.3 ± 4.8%
AlAT ([9]; 20 mg/kg perorally 30 minutes before and 7 hours after CCl4, 24 hours, CCl4 control 0.83 ± 0.21, intact 0.27 ± 0.04): 0.42 ± 0.08 mmol/L/h
% of reducing AlAT ([9]; 20 mg/kg perorally, relative to CCl4 control): −49%

O=C1NC(=O)N(c2cccc(C(F)(F)F)c2)C(=O)C1=NO [XXXII]
% change of glucose relative to glucose control [3]: −14%
Glucose in blood [3]: 7.10 ± 0.28 mmol/L
% of animals with ulcers [4]: 100%
% of reducing number of ulcers [4]: −52%
% of reducing ulceration index [4]: −64%
Number of lesions [4]: 4.0 ± 1.3
ulceration index [4]: 3.8 ± 1.5
% of inhibition of cholesterol synthesis [2]: 23.5%
Maximal tolerable dose, concentration of test substances [10]: 300 mg/kg
IC50, suppressing chemiluminescence by 50% [6]: 6.40 µg/mL (≈ 21.2 µM)
Quantity of the unchanged cells (number of cells in 100 visual fields) [7]: 5000
percentage of protection of cells from virus [7]: (50%)
% of inhibition of platelet aggregation [8]: 64.3 ± 6.2%
Content of IFN in induction mixture after 24-hour incubation ([11]; substance 1 mg/l): 12.5 ± 1.0 IU/3 × 10^4 lymph./ml
Content of IFN in induction mixture after 24-hour incubation ([11]; substance 10 mg/l): 77.5 ± 1.5 IU/3 × 10^4 lymph./ml
Content of IFN in induction mixture after 24-hour incubation ([11]; substance 100 mg/l): 126.5 ± 1.6 IU/3 × 10^4 lymph./ml
